What is called IC50 is the concentration needed to halve the response being measured. Low values mean greater potency in that assay, high ones weaker potency in that assay.

Molecules are shown by their SMILES.

The values below come from PMC5125864 (Molecular and biochemical parasitology, 2016).

In this assay the target is T1, ehRad51 (Entamoeba histolytica, UniProt C4M4K4).
T1 sequence (C4M4K4 1-366): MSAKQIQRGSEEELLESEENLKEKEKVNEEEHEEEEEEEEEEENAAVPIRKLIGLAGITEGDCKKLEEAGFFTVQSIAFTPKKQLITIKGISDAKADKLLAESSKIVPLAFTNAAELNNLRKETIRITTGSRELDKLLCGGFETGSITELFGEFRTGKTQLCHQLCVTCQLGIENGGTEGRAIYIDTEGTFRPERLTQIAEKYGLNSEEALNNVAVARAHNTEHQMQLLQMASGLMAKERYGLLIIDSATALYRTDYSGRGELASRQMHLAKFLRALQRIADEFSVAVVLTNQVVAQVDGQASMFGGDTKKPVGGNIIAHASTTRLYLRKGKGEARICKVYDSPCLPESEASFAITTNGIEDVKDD
The assay can be described thus: oligonucleotide DNA strand exchange. Format: biochemical.

`O=S(=O)(O)c1cc(N=C=S)ccc1C=Cc1ccc(N=C=S)cc1S(=O)(=O)O` [DIDS, 4,4′-diisothiocyanostilbene-2,2′-disulfonic acid]: the midpoint of inhibition, the IC50, lay at 18.5 µM.
